{"source": "paper PMC10303920", "about": "“Competition between skin antimicrobial peptides and commensal bacteria in type 2 inflammation enables survival of S. aureus” (Cell reports, 2023)", "tested_on": "mixture of S. aureus (ATCC35556), ShA9-WT and ShA9-ΔLanti", "test": "Staphylococcus competition assay in vitro", "type": "cell-based, Staphylococcus aureus, Staphylococcus hominis", "settings": "RPMI1640, 1 × 10^6 CFU/mL each strain, 30°C, 3 h, Figure 6B", "description": "Three Staphylococcus strains, S. aureus (ATCC35556), ShA9-WT (antibiotic-producing strain) or ShA9-Dlanti mutant (non-antimicrobial strain) were individually cultured in TSB. Bacterial cells were washed with PBS and re-suspended in fresh PBS. For in vitro competition assay, three bacterial strains were suspended in RPMI1640 media (1mL) at 1 × 10^6 CFU/mL each and LL-37 was added at 0, 1, 2, 4, 8, 16μM. Bacterial mixture were incubated at 30°C for 3 h without shaking. […] Proportion of three Staphylococcus strains was determined by CFU counting on mannitol salt agar with egg yolk for total Staphylococcus CFU and on Barid-Parker agar for S. aureus. Relative proportion of Staphylococcus species was determined as following; S. aureus: CFUs on Baird-Parker CFU/CFUs on mannitol salt agar, CoNS: CFUs on mannitol salt agar – CFUs on Baird-Parker. Ratio of ShA9-WT to ShA9-DLanti mutant were measured by analyzing 12 colonies of pink color CoNS colonies without halo on mannitol salt agar from each sample with colony PCR using lantibiotic-specific primers (key resources table).\nSurvival of S. aureus and CoNS were measured on Baird-Parker agar for S. aureus or mannitol salt agar with egg yolk for total Staphylococcus species using easySpiral automatic diluter plater with exponential mode or circle mode and automatic colony counter (Interscience Inc., France). […]", "data": [{"substance": "LL-37", "values": [{"measurement": "Shift in relative proportion of the bacterial mixture at lower LL-37 concentrations", "setting": "LL-37 1–4 μM", "value": "favor growth of S. aureus and ShA9-ΔLanti over the antibiotic-producing ShA9-WT"}, {"measurement": "Effect on the bacterial mixture at higher LL-37 concentrations", "setting": "LL-37 8–16 μM", "value": "inhibited both the antibiotic-producing CoNS and S. aureus"}]}]}
